Test results: patent US20100210836A1, “SMALL MOLECULE INHIBITORS OF LYMPHOID TYROSINE PHOSPHATASE” (University of Southern California, priority 2009, published 2010)
Where two headings read alike, the source gives them in different places.

Tests used:
LYP/PTPN22 = molecular target: T1, LYP/PTPN22 (Homo sapiens, UniProt Q9Y2R2); assay: biochemical
T1 construct: catalytic domains of LYP (aa 2-309) and PTP-PEST (aa 2-323, PEST); 6xHis (N, cleaved yes); made in house; host or cells: E. coli BL21
T1 sequence (Q9Y2R2 2-309): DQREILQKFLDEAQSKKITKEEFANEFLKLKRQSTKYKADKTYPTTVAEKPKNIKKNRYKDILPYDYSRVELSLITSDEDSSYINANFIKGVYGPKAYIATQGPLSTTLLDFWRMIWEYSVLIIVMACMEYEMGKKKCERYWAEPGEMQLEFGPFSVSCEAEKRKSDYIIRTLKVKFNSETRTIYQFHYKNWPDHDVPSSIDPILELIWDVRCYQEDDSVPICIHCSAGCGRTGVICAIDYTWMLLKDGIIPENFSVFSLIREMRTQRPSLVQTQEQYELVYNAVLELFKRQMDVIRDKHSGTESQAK
Description: Chemical Library Screening for LYP Inhibitors. A library consisting of a highly diverse set of 4,000 compounds was screened in a 96-well format in an assay specific for LYP activity. […] The reaction mixture with the compounds was incubated for 25 min at 37° C. […] All assays were done in triplicate. The IC50 values were then determined for each drug from a plot of log [drug concentration] versus percentage of enzyme inhibition. Absorbance data were measured using a Molecular Devices Emax Precision Microplate reader.
Identification of Compounds as LYP Inhibitors. We initially screened a library of 4000 drug-like small-molecule compounds against LYP/PTPN22, using p-nitrophenyl phosphate (pNPP) as a substrate. The ability of the library members to inhibit LYP/PTPN22 catalyzed hydrolysis of pNPP was measured in a buffer containing 50 mM Bis-Tris pH 6.0, 1 mM DTT at 37° C.

PTP-PEST = molecular target: T2, PTP-PEST (Homo sapiens, UniProt Q05209); assay: Counter-screen phosphatase assay PTP-PEST; type: biochemical; conditions: read-out: PEST IC50
T2 sequence (Q05209 2-323): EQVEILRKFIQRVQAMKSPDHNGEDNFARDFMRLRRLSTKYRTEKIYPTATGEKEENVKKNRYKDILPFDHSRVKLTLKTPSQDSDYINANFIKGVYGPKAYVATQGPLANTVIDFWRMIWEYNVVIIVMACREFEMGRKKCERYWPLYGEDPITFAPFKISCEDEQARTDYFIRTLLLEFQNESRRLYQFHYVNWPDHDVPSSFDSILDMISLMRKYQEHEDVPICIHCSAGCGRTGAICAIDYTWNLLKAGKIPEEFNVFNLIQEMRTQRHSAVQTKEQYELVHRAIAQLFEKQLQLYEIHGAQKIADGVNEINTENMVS

[1] = LYP IC50, Table IV, analogues of E3P13
[2] = Table IV, analogues of E3P13, read-out: LYP IC50
[3] = selectivity, ratio PEST IC50 / LYP IC50, Table IV

SMILES | IC50 (LYP/PTPN22; [1]) [µM] | IC50 (PTP-PEST) [µM] | further results
COc1ccc2cc([C@@H](c3nnnn3C3CCCC3)N3CCCCC3)c(=O)[nH]c2c1 [compound 64] | > 40 | – | –
Cc1ccc2[nH]c(=O)c([C@@H](c3nnnn3C3CCCC3)N3CCCC3)cc2c1 [compound 59] | > 40 | – | –
Cc1ccc2[nH]c(=O)c([C@H](c3nnnn3C3CCCC3)N3CCN(c4ccc(O)cc4)CC3)cc2c1 [compound 74] | – | – | IC50 (LYP/PTPN22; [2]): > 40 µM
Cc1cc(C)c2[nH]c(=O)c([C@H](c3nnnn3C3CCCC3)N3CCC(C)CC3)cc2c1 [compound 62] | > 40 | – | –
O=c1[nH]c2ccccc2cc1[C@@H](c1nnnn1C1CCCC1)N1CCc2ccccc2C1 [compound 37] | 28 | 31.5 | PEST_LYP (LYP/PTPN22; [3]): 1.13
Cc1ccc2cc([C@H](c3nnnn3C(C)(C)C)N3CCCC4(CCCCC4)C3)c(=O)[nH]c2c1 [compound 29] | 20.3 | 27.1 | PEST_LYP (LYP/PTPN22; [3]): 1.33
Cc1cccc2cc([C@@H](c3nnnn3C3CCCC3)N3CCCCC3)c(=O)[nH]c12 [compound 76] | > 40 | – | –
CCC(C)(C)n1nnnc1[C@@H](c1cc2ccc(C)cc2[nH]c1=O)N1CCCC2(CCCCC2)C1 [compound 34] | 21.4 | 34.2 | PEST_LYP (LYP/PTPN22; [3]): 1.6
Cc1ccc2cc(C(c3nnnn3C3CCCC3)N3CCCC4(CCCCC4)C3)c(=O)[nH]c2c1 (stereo not drawn) [compound 21] | – | 21.8 | PEST_LYP (LYP/PTPN22): 1.43; IC50 (LYP/PTPN22; LYP IC50): 15.2 µM
Cc1cc(C)c2cc([C@H](c3nnnn3C3CCCC3)N3CCC(C)CC3)c(=O)[nH]c2c1 [compound 71] | > 40 | – | –
Cc1ccc2cc([C@H](c3nnnn3C3CCCC3)N3CCC[C@@H](C)C3)c(=O)[nH]c2c1C [compound 60] | > 40 | – | –
Cc1ccc2[nH]c(=O)c([C@H](c3nnnn3C3CCCC3)N3CCN(C)CC3)cc2c1 [compound 56] | – | – | IC50 (LYP/PTPN22; [2]): > 40 µM
Cc1cccc2cc([C@H](c3nnnn3CC3CCCC3)N3CCCC4(CCCCC4)C3)c(=O)[nH]c12 [compound 51] | > 40 | – | –
Cc1ccc2cc([C@@H](c3nnnn3C3CCCC3)N3CCCCC3)c(=O)[nH]c2c1C [compound 63] | > 40 | – | –
Cc1ccc2[nH]c(=O)c([C@H](c3nnnn3C3CCCC3)N3CCN(c4nc5ccccc5[nH]4)CC3)cc2c1 [compound 38] | 30.1 | 38.6 | PEST_LYP (LYP/PTPN22; [3]): 1.26
CCN1CCN([C@H](c2cc3cc(C)ccc3[nH]c2=O)c2nnnn2C2CCCC2)CC1 [compound 52] | – | – | IC50 (LYP/PTPN22; [2]): > 40 µM
COc1ccc(N2CCN([C@H](c3cc4ccc(OC)cc4[nH]c3=O)c3nnnn3C3CCCC3)CC2)cc1 [compound 67] | > 40 | – | –
COc1ccc2cc(C(c3nnnn3C3CCCC3)N3CCCC4(CCCCC4)C3)c(=O)[nH]c2c1 (stereo not drawn) [compound 26] | – | 31.7 | PEST_LYP (LYP/PTPN22): 1.74; IC50 (LYP/PTPN22; LYP IC50): 18.2 µM
Cc1ccc2[nH]c(=O)c([C@H](c3nnnn3C3CCCC3)N3CCC[C@@H](C)C3)cc2c1 [compound 24] | – | 26.5 | –
Cc1ccc2[nH]c(=O)c([C@@H](c3nnnn3C3CCCC3)N3CCCCCC3)cc2c1 [compound 54] | > 40 | – | –
CCC(C)(C)n1nnnc1[C@@H](c1cc2ccc(OC)cc2[nH]c1=O)N1CCCC2(CCCCC2)C1 [compound 35] | 22.5 | 29.9 | PEST_LYP (LYP/PTPN22; [3]): 1.33
Cc1ccc2[nH]c(=O)c([C@H](c3nnnn3C3CCCC3)N3CCN(c4ccc(F)cc4)CC3)cc2c1 [compound 45] | – | 38 | –
Cc1ccc2[nH]c(=O)c(C(c3nnnn3C3CCCC3)N(Cc3ccccc3)Cc3ccc(C(C)C)cc3)cc2c1 (stereo not drawn) [compound 1] | – | 5.55 | –
Cc1ccc2cc(C(c3nnnn3C3CCCC3)N3CCN(C(c4ccccc4)c4ccccc4)CC3)c(=O)[nH]c2c1C (stereo not drawn) [compound 6] | – | 9.8 | PEST_LYP (LYP/PTPN22): 1.07; IC50 (LYP/PTPN22; LYP IC50): 9.13 µM
Cc1cccc2cc([C@H](c3nnnn3Cc3ccccc3)N3CCCC4(CCCCC4)C3)c(=O)[nH]c12 [compound 31] | 20.4 | 29.8 | PEST_LYP (LYP/PTPN22; [3]): 1.46
Cc1cccc2cc([C@H](c3nnnn3C3CCCC3)N3CCN(C)CC3)c(=O)[nH]c12 [compound 75] | > 40 | – | –

SMILES | IC50 (LYP/PTPN22; [1]) [µM] | IC50 (PTP-PEST) [µM] | further results
Cc1cc(C)c2[nH]c(=O)c([C@@H](c3nnnn3Cc3ccccc3)N3CCCC4(CCCCC4)C3)cc2c1 [compound 14] | 12.9 | 15.2 | PEST_LYP (LYP/PTPN22; [3]): 1.18
Cc1ccc2[nH]c(=O)c([C@@H](c3nnnn3C3CCCC3)N3CCc4ccccc4C3)cc2c1 [compound 39] | 30.5 | 39 | PEST_LYP (LYP/PTPN22; [3]): 1.28
COc1ccc2cc([C@H](c3nnnn3C3CCCC3)N3CCN(c4ccccc4)CC3)c(=O)[nH]c2c1 [compound 66] | > 40 | – | –
COc1ccc2cc([C@H](c3nnnn3Cc3ccccc3)N3CCCC4(CCCCC4)C3)c(=O)[nH]c2c1 [compound 27] | 19.3 | 13.7 | PEST_LYP (LYP/PTPN22; [3]): 0.71
COc1ccc2cc([C@@H](c3nnnn3C3CCCC3)N3CCC(C)CC3)c(=O)[nH]c2c1 [compound 65] | > 40 | – | –
Cc1ccc2cc([C@@H](c3nnnn3C3CCCC3)N3CCCCC3)c(=O)[nH]c2c1 [compound 68] | > 40 | – | –
Cc1ccc2[nH]c(=O)c([C@@H](c3nnnn3C3CCCC3)N(CCc3ccccc3)Cc3ccccc3)cc2c1 [compound 16] | 13.3 | 19.7 | PEST_LYP (LYP/PTPN22; [3]): 1.46
Cc1ccc2[nH]c(=O)c([C@H](c3nnnn3C3CCCC3)N3CCN(c4ccccc4)CC3)cc2c1 [compound 47] | – | 32.5 | PEST_LYP (LYP/PTPN22): 0.89; IC50 (LYP/PTPN22; LYP IC50): 36.5 µM
Cc1cccc2cc(C(c3nnnn3C3CCCC3)N3CCCC4(CCCCC4)C3)c(=O)[nH]c12 (stereo not drawn) [compound 22] | – | 21.1 | PEST_LYP (LYP/PTPN22): 1.34; IC50 (LYP/PTPN22; LYP IC50): 15.8 µM
Cc1ccc2[nH]c(=O)c([C@H](c3nnnn3C3CCCC3)N3CCN(Cc4ccccc4)CC3)cc2c1 [compound 77] | – | – | IC50 (LYP/PTPN22; [2]): > 40 µM
Cc1ccc2[nH]c(=O)c([C@H](c3nnnn3C3CCCC3)N3CCC(O)CC3)cc2c1 [compound 78] | > 40 | – | –
Cc1cc(C)c2cc([C@H](c3nnnn3C3CCCC3)N3CCCCC3)c(=O)[nH]c2c1 [compound 70] | > 40 | – | –
Cc1ccc2[nH]c(=O)c([C@H](c3nnnn3C3CCCC3)N3CCN(Cc4ccccc4)CC3)cc2c1 [compound 80] | – | – | IC50 (LYP/PTPN22; [2]): > 40 µM
Cc1ccc2[nH]c(=O)c([C@H](c3nnnn3C3CCCC3)N(C)C3CCCCC3)cc2c1 [compound 53] | > 40 | – | –
COc1ccc(CN(Cc2ccccc2)[C@@H](c2cc3cc(C)ccc3[nH]c2=O)c2nnnn2C2CCCC2)cc1 [compound 15] | – | 15.1 | –
Cc1ccc2[nH]c(=O)c([C@H](c3nnnn3C3CCCC3)N3CCN4CCC[C@H]4C3)cc2c1 [compound 57] | > 40 | – | –
COc1ccc2cc([C@H](c3nnnn3CC3CCCC3)N3CCCC4(CCCCC4)C3)c(=O)[nH]c2c1 [compound 55] | > 40 | – | –
CCOC(=O)C1CCN([C@H](c2cc3cc(C)ccc3[nH]c2=O)c2nnnn2C2CCCC2)CC1 [compound 79] | > 40 | – | –
Cc1cc(C)c2[nH]c(=O)c([C@H](c3nnnn3C3CCCC3)N3CCCCC3)cc2c1 [compound 61] | > 40 | – | –
Cc1ccc2[nH]c(=O)c([C@@H](c3nnnn3C3CCCC3)N(Cc3ccccc3)Cc3ccc(Cl)cc3)cc2c1 [compound 7] | – | 17 | –
Cc1cccc2cc([C@H](c3nnnn3C3CCCC3)N3CCC[C@@H](C)C3)c(=O)[nH]c12 [compound 72] | > 40 | – | –
Cc1ccc2[nH]c(=O)c([C@H](c3nnnn3C3CCCC3)N3CCN(C4CCCCC4)CC3)cc2c1 [compound 73] | – | – | IC50 (LYP/PTPN22; [2]): > 40 µM
Cc1cccc2cc([C@H](c3nnnn3C3CCCCC3)N3CCN(Cc4ccccc4)CC3)c(=O)[nH]c12 [compound 69] | > 40 | – | –
Cc1ccc2[nH]c(=O)c([C@@H](c3nnnn3C3CCCC3)N3CCOCC3)cc2c1 [compound 58] | > 40 | – | –
COc1ccccc1N1CCN([C@H](c2cc3cc(C)ccc3[nH]c2=O)c2nnnn2C2CCCC2)CC1 [compound 50] | – | – | IC50 (LYP/PTPN22; [2]): > 40 µM
